In ChEMBL document CHEMBL5705893, “Targeting the mitotic checkpoint for cancer therapy with NMS-P715, an inhibitor of MPS1 kinase” (Cancer Res, 2010):
Activity calls are given as the source filed them. No cut-off for these calls is given here.

Experiments:
[1] = target: Insulin receptor (Homo sapiens, UniProt P06213); experiment: Inhibition of recombinant IR (unknown origin)
[2] = tested on: TF-1; experiment: Antiproliferative activity against human TF-1 cells assessed as inhibition of cell growth incubated for 72 hrs by celltiter-glo assay; assay type: functional, cell-based; details: TF-1, 72 h
[3] = tested on: HEL; experiment: Antiproliferative activity against human HEL cells assessed as inhibition of cell growth incubated for 72 hrs by celltiter-glo assay; assay type: functional, cell-based
[4] = Half life in Athymic nu-nu mouse at 10 mg/kg, po measured upto 24 hrs by LC-MS/MS analysis; assay type: ADME, organism-based; details: in vivo
[5] = target: Epidermal growth factor receptor (Homo sapiens, UniProt P00533)
Description: Inhibition of recombinant EGFR1 (unknown origin)

[6] = target: Cyclin-dependent kinase 5/CDK5 activator 1 (Homo sapiens, UniProt Q00535)
Description: Inhibition of recombinant CDK5/P25 (unknown origin)

[7] = target: Inhibitor of nuclear factor kappa-B kinase subunit beta (Homo sapiens, UniProt O14920); experiment: Inhibition of recombinant IKK2 (unknown origin)
[8] = tested on: Toledo; experiment: Antiproliferative activity against human Toledo cells assessed as inhibition of cell growth incubated for 72 hrs by celltiter-glo assay; assay type: functional, cell-based
[9] = tested on: Calu-3; experiment: Antiproliferative activity against human Calu-3 cells assessed as inhibition of cell growth incubated for 72 hrs by celltiter-glo assay; assay type: functional, cell-based; details: Calu-3, 72 h
[10] = Inhibition of recombinant PDGFR (unknown origin); set-up: species or system Homo sapiens
[11] = target: Mitogen-activated protein kinase 14 (Homo sapiens, UniProt Q16539); experiment: Inhibition of recombinant P38alpha (unknown origin)
[12] = tested on: SW-620; experiment: Antiproliferative activity against human SW620 cells assessed as inhibition of cell growth incubated for 72 hrs by celltiter-glo assay; assay type: functional, cell-based; details: SW-620, 72 h
[13] = tested on: SW48; experiment: Antiproliferative activity against human SW48 cells assessed as inhibition of cell growth incubated for 72 hrs by celltiter-glo assay; assay type: functional, cell-based; details: SW48, 72 h
[14] = tested on: HCT-116; experiment: Cell cycle arrest in human HCT-116 cells assessed as accumulation of cells at G2/M phase at 0.2 to 1 micromol/L incubated for 48 hrs by FACS/PI staining based flow cytometric analysis; assay type: functional; details: dose 0.2-1 µmol/L
[15] = Antiproliferative activity against human PL21 cells assessed as inhibition of cell growth incubated for 72 hrs by celltiter-glo assay; assay type: functional, cell-based; details: PL-21, 72 h
[16] = target: Serine/threonine-protein kinase PLK2 (Homo sapiens, UniProt Q9NYY3); experiment: Inhibition of recombinant PLK2 (unknown origin)
[17] = target: Tyrosine-protein kinase JAK1 (Homo sapiens, UniProt P23458); experiment: Inhibition of recombinant JAK1 (unknown origin)
[18] = target: Dual specificity protein kinase TTK (Homo sapiens) (UniProt P33981)
Description: Binding affinity to recombinant human MPS1 assessed as half life

[19] = target: MAP kinase-activated protein kinase 2 (Homo sapiens, UniProt P49137); experiment: Inhibition of recombinant MAPKAPK2 (unknown origin)
[20] = tested on: A498; experiment: Antiproliferative activity against human A498 cells assessed as inhibition of cell growth incubated for 72 hrs by celltiter-glo assay; assay type: functional, cell-based; details: A498, 72 h
[21] = Antiproliferative activity against human DERL-7 cells assessed as inhibition of cell growth incubated for 72 hrs by celltiter-glo assay; assay type: functional, cell-based; details: DERL7, 72 h
[22] = target: Serine/threonine-protein kinase pim-1 (Homo sapiens, UniProt P11309); experiment: Inhibition of recombinant PIM1 (unknown origin)
[23] = Clearance in Athymic nu-nu mouse at 10 mg/kg, iv measured upto 24 hrs by LC-MS/MS analysis; assay type: ADME, organism-based; details: in vivo
[24] = tested on: SF-268; experiment: Antiproliferative activity against human SF-268 cells assessed as inhibition of cell growth incubated for 72 hrs by celltiter-glo assay; assay type: functional, cell-based; details: SF-268, 72 h
[25] = Cmax in Athymic nu-nu mouse at 10 mg/kg, iv measured upto 24 hrs by LC-MS/MS analysis; assay type: ADME, organism-based; details: in vivo
[26] = tested on: SU-DHL-8; experiment: Antiproliferative activity against human SU-DHL-8 cells assessed as inhibition of cell growth incubated for 72 hrs by celltiter-glo assay; assay type: functional, cell-based; details: SU-DHL-8, 72 h
[27] = tested on: SU-DHL-6; experiment: Antiproliferative activity against human SU-DHL-6 cells assessed as inhibition of cell growth incubated for 72 hrs by celltiter-glo assay; assay type: functional, cell-based; details: SU-DHL-6, 72 h
[28] = tested on: U2OS; experiment: Antiproliferative activity against human U2OS cells assessed as inhibition of cell growth incubated for 72 hrs by celltiter-glo assay; assay type: functional, cell-based
[29] = target: MAP kinase-interacting serine/threonine-protein kinase 2 (Homo sapiens, UniProt Q9HBH9); experiment: Inhibition of recombinant MNK2 (unknown origin)
[30] = tested on: HCC 2998; experiment: Antiproliferative activity against human HCC 2998 cells assessed as inhibition of cell growth incubated for 72 hrs by celltiter-glo assay; assay type: functional, cell-based; details: HCC 2998, 72 h
[31] = Antiproliferative activity against human COLO 206F cells assessed as inhibition of cell growth incubated for 72 hrs by celltiter-glo assay; assay type: functional, cell-based
[32] = tested on: SW1417; experiment: Antiproliferative activity against human SW1417 cells assessed as inhibition of cell growth incubated for 72 hrs by celltiter-glo assay; assay type: functional, cell-based; details: SW1417, 72 h
[33] = tested on: NCI-H82; experiment: Antiproliferative activity against human NCI-H82 cells assessed as inhibition of cell growth incubated for 72 hrs by celltiter-glo assay; assay type: functional, cell-based; details: NCI-H82, 72 h
[34] = target: Maternal embryonic leucine zipper kinase (Homo sapiens, UniProt Q14680); experiment: Inhibition of recombinant MELK (unknown origin)
[35] = tested on: A-375; experiment: Antiproliferative activity against human A-375 cells assessed as inhibition of cell growth incubated for 72 hrs by celltiter-glo assay; assay type: functional, cell-based; details: A-375, 72 h
[36] = Antiproliferative activity against human GM13705 cells assessed as inhibition of cell growth incubated for 72 hrs by celltiter-glo assay; assay type: functional, cell-based; details: GM13705, 72 h
[37] = Inhibition of recombinant AUR1 (unknown origin); set-up: species or system Homo sapiens
[38] = target: High affinity nerve growth factor receptor (Homo sapiens, UniProt P04629); experiment: Inhibition of recombinant TRKA (unknown origin)
[39] = tested on: HeLa; experiment: Inhibition of cdc20-MAD2 protein-protein interaction in human nocodazole arrested HeLa cells by Coimmunoprecipitation analysis; assay type: cell-based
[40] = tested on: BT-549; experiment: Antiproliferative activity against human BT-549 cells assessed as inhibition of cell growth incubated for 72 hrs by celltiter-glo assay; assay type: functional, cell-based; details: BT-549, 72 h
[41] = Oral bioavailability in Athymic nu-nu mouse at 10 mg/kg measured upto 24 hrs by LC-MS/MS analysis; assay type: ADME, organism-based; details: in vivo
[42] = tested on: A-431; experiment: Antiproliferative activity against human A-431 cells assessed as inhibition of cell growth incubated for 72 hrs by celltiter-glo assay; assay type: functional, cell-based; details: A-431, 72 h
[43] = target: Cyclin-dependent kinase 1/cyclin B1 (Homo sapiens, UniProt P06493); experiment: Inhibition of recombinant CDK1/CYCB (unknown origin); assay type: protein-complex assay
[44] = tested on: NCI-H522; experiment: Antiproliferative activity against human NCI-H522 cells assessed as inhibition of cell growth incubated for 72 hrs by celltiter-glo assay; assay type: functional, cell-based; details: NCI-H522, 72 h
[45] = tested on: KG-1; experiment: Antiproliferative activity against human KG-1 cells assessed as inhibition of cell growth incubated for 72 hrs by celltiter-glo assay; assay type: functional, cell-based; details: KG-1, 72 h

Chain of MAP kinase-interacting serine/threonine-protein kinase 2 (Q9HBH9 whole entry): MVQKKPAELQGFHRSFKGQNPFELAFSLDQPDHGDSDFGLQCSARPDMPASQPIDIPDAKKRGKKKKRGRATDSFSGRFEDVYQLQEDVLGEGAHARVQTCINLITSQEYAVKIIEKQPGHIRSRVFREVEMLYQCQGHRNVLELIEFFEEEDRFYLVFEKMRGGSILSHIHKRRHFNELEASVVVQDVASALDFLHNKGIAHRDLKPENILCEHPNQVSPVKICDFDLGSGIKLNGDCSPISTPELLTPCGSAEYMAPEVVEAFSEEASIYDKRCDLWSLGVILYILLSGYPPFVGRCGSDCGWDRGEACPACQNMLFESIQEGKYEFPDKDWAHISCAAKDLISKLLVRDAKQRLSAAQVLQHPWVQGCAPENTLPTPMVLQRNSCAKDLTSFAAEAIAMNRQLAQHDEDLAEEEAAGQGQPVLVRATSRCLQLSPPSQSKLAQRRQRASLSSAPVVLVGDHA
Chain of Serine/threonine-protein kinase pim-1 (P11309 whole entry): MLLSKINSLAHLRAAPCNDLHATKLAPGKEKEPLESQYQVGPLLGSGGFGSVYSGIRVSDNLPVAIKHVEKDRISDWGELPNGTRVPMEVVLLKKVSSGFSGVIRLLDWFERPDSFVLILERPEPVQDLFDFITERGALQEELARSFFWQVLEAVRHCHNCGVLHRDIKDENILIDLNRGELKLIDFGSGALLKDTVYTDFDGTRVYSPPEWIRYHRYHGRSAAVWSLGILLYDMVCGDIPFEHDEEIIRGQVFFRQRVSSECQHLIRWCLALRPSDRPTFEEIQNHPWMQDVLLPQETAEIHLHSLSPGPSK
Chain of Insulin receptor (P06213 28-758 limits assumed): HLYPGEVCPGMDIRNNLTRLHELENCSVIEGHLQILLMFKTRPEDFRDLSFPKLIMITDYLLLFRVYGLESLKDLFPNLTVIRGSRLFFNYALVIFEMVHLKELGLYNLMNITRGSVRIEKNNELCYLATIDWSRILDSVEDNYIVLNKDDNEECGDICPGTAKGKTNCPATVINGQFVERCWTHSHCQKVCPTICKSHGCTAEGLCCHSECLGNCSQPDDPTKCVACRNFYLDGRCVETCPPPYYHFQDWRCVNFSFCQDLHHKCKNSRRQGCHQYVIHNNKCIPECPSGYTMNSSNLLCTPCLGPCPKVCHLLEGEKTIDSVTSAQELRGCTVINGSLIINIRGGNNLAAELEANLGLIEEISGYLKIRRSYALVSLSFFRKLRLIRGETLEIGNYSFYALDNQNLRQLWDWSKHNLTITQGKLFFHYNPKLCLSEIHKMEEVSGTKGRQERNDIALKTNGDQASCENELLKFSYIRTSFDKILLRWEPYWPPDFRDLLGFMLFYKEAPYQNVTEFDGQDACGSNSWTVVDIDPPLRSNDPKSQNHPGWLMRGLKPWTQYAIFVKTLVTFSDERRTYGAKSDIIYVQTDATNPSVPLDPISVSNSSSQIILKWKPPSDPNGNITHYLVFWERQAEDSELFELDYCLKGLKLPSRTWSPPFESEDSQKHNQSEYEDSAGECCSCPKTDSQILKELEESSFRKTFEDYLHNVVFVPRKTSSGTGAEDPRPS
Chain of Insulin receptor (P06213 763-1382 limits assumed): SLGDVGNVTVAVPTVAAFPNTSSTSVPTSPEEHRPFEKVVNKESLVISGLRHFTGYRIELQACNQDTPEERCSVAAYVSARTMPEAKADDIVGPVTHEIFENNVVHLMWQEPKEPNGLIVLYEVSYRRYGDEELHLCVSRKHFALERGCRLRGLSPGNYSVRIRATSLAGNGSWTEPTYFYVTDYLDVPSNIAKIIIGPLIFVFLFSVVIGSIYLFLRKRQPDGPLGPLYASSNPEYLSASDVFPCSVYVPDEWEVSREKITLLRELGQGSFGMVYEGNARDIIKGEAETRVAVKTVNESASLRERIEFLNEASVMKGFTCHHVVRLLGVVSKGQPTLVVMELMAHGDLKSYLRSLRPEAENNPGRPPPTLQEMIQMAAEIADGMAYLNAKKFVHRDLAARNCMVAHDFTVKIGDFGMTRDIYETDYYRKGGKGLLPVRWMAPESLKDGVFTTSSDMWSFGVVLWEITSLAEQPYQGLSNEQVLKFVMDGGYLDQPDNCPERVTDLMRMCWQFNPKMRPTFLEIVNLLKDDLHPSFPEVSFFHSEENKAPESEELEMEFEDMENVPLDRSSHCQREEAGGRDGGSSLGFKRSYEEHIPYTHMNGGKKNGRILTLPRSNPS
Chain of Mitogen-activated protein kinase 14 (Q16539 whole entry): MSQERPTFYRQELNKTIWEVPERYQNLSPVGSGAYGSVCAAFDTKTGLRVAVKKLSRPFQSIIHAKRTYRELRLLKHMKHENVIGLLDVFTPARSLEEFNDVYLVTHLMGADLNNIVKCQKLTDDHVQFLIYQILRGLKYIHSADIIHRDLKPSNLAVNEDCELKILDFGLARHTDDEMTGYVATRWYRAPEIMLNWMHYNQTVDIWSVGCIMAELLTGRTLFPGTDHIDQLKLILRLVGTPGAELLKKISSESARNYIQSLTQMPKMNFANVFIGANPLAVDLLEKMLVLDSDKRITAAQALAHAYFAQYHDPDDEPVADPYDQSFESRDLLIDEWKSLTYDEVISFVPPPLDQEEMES
Chain of Inhibitor of nuclear factor kappa-B kinase subunit beta (O14920 whole entry): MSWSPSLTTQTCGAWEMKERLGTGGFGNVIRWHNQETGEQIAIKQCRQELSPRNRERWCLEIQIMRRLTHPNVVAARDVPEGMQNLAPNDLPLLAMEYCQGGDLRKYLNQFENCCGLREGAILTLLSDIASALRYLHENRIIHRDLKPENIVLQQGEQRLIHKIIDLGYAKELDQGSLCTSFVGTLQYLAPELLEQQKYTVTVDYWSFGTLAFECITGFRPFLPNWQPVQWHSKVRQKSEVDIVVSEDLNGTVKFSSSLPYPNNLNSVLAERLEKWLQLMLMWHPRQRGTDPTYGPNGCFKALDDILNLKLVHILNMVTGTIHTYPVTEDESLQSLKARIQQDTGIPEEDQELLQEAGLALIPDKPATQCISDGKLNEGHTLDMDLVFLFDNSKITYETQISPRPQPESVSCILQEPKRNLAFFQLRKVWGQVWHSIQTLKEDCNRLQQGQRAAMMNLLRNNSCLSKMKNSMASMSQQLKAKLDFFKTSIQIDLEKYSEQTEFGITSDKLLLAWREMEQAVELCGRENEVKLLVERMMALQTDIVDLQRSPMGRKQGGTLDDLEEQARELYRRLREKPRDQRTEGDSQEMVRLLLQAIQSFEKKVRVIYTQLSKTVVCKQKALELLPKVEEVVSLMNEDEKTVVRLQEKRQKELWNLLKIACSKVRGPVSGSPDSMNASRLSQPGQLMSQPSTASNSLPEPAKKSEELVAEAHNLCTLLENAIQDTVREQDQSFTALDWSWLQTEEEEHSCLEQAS
Chain of MAP kinase-activated protein kinase 2 (P49137 whole entry): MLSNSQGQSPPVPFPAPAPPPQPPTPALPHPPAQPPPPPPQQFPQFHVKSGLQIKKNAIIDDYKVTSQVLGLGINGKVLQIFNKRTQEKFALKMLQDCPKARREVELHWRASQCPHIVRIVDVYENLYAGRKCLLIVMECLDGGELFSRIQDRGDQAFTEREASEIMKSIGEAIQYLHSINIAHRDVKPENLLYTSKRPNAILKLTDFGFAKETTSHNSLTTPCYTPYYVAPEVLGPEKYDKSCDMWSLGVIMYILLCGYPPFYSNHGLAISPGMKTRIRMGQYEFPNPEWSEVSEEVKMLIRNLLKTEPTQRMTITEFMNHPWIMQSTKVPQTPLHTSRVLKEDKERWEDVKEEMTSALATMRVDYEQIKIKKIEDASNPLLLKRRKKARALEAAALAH
Chain of Cyclin-dependent kinase 1/cyclin B1 (P06493 whole entry): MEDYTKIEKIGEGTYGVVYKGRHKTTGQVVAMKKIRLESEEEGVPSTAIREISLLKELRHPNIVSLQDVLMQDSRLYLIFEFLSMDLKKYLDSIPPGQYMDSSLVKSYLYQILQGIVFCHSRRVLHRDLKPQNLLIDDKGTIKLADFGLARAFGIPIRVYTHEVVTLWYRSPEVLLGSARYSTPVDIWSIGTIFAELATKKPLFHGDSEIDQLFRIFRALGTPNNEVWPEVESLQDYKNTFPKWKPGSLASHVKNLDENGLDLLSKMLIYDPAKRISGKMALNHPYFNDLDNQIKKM
Chain of Cyclin-dependent kinase 1/cyclin B1 (P14635 whole entry, further chain): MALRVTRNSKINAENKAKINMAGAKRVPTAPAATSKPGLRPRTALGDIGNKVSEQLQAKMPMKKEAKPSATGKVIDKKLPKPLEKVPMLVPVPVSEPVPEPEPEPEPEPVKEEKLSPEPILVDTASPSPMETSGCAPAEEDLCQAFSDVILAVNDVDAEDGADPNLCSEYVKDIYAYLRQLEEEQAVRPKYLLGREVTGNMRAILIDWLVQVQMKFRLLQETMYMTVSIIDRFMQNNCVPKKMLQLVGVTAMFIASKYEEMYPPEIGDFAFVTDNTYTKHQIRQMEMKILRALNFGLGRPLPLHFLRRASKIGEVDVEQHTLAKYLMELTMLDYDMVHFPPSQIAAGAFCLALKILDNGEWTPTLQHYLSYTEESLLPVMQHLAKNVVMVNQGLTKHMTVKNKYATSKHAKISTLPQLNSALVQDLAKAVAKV

IC50 [1]: > 10000 nM
half-life [4]: 8.01 h
IC50 [5]: > 10000 nM
IC50 [6]: > 10000 nM
IC50 [7]: > 10000 nM
IC50 [9]: 1440 nM
IC50 [10]: > 10000 nM
IC50 [11]: > 10000 nM
IC50 [12]: 472 nM
IC50 [13]: 551 nM
IC50 [16]: > 10000 nM
IC50 [17]: > 10000 nM
T1/2 [18]: 9.76 min
IC50 [19]: > 10000 nM
IC50 [22]: > 10000 nM
clearance [23]: 10 mL/min/kg
Cmax [25]: 4.79 µM
IC50 [26]: 829 nM
IC50 [27]: 10000 nM
IC50 [28]: 2090 nM
IC50 [29]: > 10000 nM
IC50 [30]: 1810 nM
IC50 [32]: 8840 nM
IC50 [33]: 2590 nM
IC50 [34]: 6010 nM
IC50 [35]: 796 nM
IC50 [37]: > 10000 nM
IC50 [38]: > 10000 nM
IC50 [40]: 1050 nM
bioavailability [41]: 37.9%
IC50 [42]: 469 nM
IC50 [43]: > 10000 nM
IC50 [44]: 1200 nM
Compound: CCc1cccc(CC)c1NC(=O)c1nn(C)c2c1CCc1cnc(Nc3ccc(C(=O)NC4CCN(C)CC4)cc3OC(F)(F)F)nc1-2
IC50 [2]: 6530 nM
IC50 [3]: 5490 nM
IC50 [8]: 1720 nM
Activity [14]: Active
IC50 [15]: 2960 nM
IC50 [20]: 1710 nM
IC50 [21]: 8560 nM
IC50 [24]: 1370 nM
IC50 [31]: 1240 nM
IC50 [36]: 10000 nM
inhibition [39]: Active
IC50 [45]: 2960 nM
